# Assay results published in patent publication US6488564B1, “Brassiere protecting against eletrostatic field induced tissue degradation” (priority 1999, dated 2002).
# Columns and labels:
# [1] = test system: B6C3F1 mouse; test: Example B: animal deaths after ADM with or without electrostatic field exposure in tumor-bearing mice; type: in vivo; parameters: key to animal death: “X” indicates an animal death
# From the text: Before methods for practicing the present invention are discussed, it will be helpful to note the results of examples of the inventor's studies with animals exposed to electrostatic fields, and to electrostatic fields and chemicals in combination. The total scope of the inventor's studies regarding electrostatic field influence inside a living body has involved over 350 tumor bearing rodents, however for the sake of brevity only four such studies will be noted here. The inventor's research protocol used the B6C3F1 mouse strain. This mouse is recognized by the National Cancer Institute as one Standard for chemotherapy research, and is one of the commonly accepted rodent species used in cancer studies. For the inventor's studies, female mice were implanted with murine mammary 16/C adenocarcinoma, a commonly used tumor for cancer research. The 16/C murine mammary tumor is particularly aggressive, and can normally grow from a barely visible, or even invisible, bump under the skin the day after the implant, to 10 to 20 percent of the animal's total body weight by day 14 (tumor size typically up to 4 grams). Approximately equal-sized tumor fragments were implanted in each mouse's axillary region through a puncture in the inguinal region. All test animals were approximately six weeks old, with a body weight of 17 to 20 grams at the time of implant. Also, food and water were provided ad libitum throughout each study, and all Groups were exposed to the same temperature and light conditions (lights on 12 hours and off 12 hours each day). The studies were blinded in both the assignment of the animals to the study groups, and in all tumor measurements.
# After the tumors were allow to establish and grow for several days, the mice were treated with adriamycin (ADM), a commonly used chemotherapeutic agent, at dose levels based on their individual weight and known to be safe. Following this, the animals were blindly divided into the study groups. The growth rate of the tumors in a Control Group, without exposure to electrostatic fields, was compared to that of Test Groups that were under the influence of an electrostatic field. Tumor measurements were made by caliper using the prolate ellipsoid formula of the National Cancer Institute to convert the measurements into weight. This method allowed the tumor weight of each animal to be tracked throughout the study.
# The mice in each Test Group were subjected to electrostatic fields with the use of special cages. When the application of electrostatic fields was required, special equipment was used to expose the desired animal groups to an electrostatic field with an intensity of approximately 79,000 V/m from a charged element insulated from the animals.
# This study used three groups of 11 tumor-bearing animals each. There was not a statistical difference in the size of the animal tumors at the start of the study. All of the animals were treated twice with 8 mg/kg ADM given on days 3 and 5 (16 mg/kg total). In addition, Groups B&C were exposed to an electrostatic field for 4 hours following each injection.
# GA: Control, treated with ADM and no electrostatic field exposure.
# GB: ADM plus exposure to a negative 15 kV DC charged screen 25.4 mm above, with a grounded grid below, the animals (90 mm between screen and grid).
# GC: ADM plus exposure to 15 minute cycles of positive then negative 15 kV DC on a screen 25.4 mm above, with a grounded grid below, the animals (90 mm between screen and grid).
# In this study the inventor inadvertently allowed the applied electrostatic fields in Groups B and C to increase the affect of the ADM to a lethal level. […] The electrostatic fields Groups B and C were exposed to increased the reaction of body cells to the ADM, creating the effect of a lethal overdose. […]
# [2] = test system: murine mammary 16/C adenocarcinoma; test: Example A: tumor regression by ADM with or without electrostatic field exposure in tumor-bearing mice; type: in vivo, B6C3F1 mouse
# From the text: The inventor's research protocol used the B6C3F1 mouse strain. […] For the inventor's studies, female mice were implanted with murine mammary 16/C adenocarcinoma, a commonly used tumor for cancer research. […] Approximately equal-sized tumor fragments were implanted in each mouse's axillary region through a puncture in the inguinal region. All test animals were approximately six weeks old, with a body weight of 17 to 20 grams at the time of implant. Also, food and water were provided ad libitum throughout each study, and all Groups were exposed to the same temperature and light conditions (lights on 12 hours and off 12 hours each day). The studies were blinded in both the assignment of the animals to the study groups, and in all tumor measurements.
# In the first study noted here, four groups of 11 tumor bearing animal each were used. […] All of the animals were treated with 12 mg/kg ADM on day 4, and housed in cages containing an insulated metal screen suspended 25.4-mm above the animals.
# GA: Control, treated with ADM and no electrostatic field exposure. The screen above animals was not charged.
# GB: The screen was charged, and changed from positive to negative 15 kV DC once each 15 minutes.
# GC: The screen was charged 15 kV DC, and changed from positive to negative once each 15 minutes. The animals were on a grounded wire grid cage floor (115 mm between the screen and floor).
# GD: The screen was charged, and changed from positive to negative 15 kV once each 15 minutes. There was no ground plane nearby.
smiles,measurement,setting,value
"COc1cccc2c1C(=O)c1c(O)c3c(c(O)c1C2=O)C[C@@](O)(C(=O)CO)C[C@@H]3O[C@H]1C[C@H](N)[C@H](O)[C@H](C)O1 [ADM, adriamycin]",ill affect,"[1]; GA: 8 mg/kg ADM days 3 and 5, without exposure to a static field",no ill affect until day 30
same,animal death,"[1]; Group A: 8 mg/kg ADM days 3 and 5, no field, day 30 (death from tumor, not ADM)",X
same,animal death,"[1]; Group B: 8 mg/kg ADM days 3 and 5 plus negative 15 kV DC field 4 hours after each injection, day 12",XXX
same,animal death,"[1]; Group B: 8 mg/kg ADM days 3 and 5 plus negative 15 kV DC field 4 hours after each injection, day 18",X
same,animal death,"[1]; Group B: 8 mg/kg ADM days 3 and 5 plus negative 15 kV DC field 4 hours after each injection, day 19",X
same,animal death,"[1]; Group B: 8 mg/kg ADM days 3 and 5 plus negative 15 kV DC field 4 hours after each injection, day 22",X
same,animal death,"[1]; Group B: 8 mg/kg ADM days 3 and 5 plus negative 15 kV DC field 4 hours after each injection, day 28",X
same,animal death,"[1]; Group C: 8 mg/kg ADM days 3 and 5 plus 15 minute cycles of positive then negative 15 kV DC field 4 hours after each injection, day 11",X
same,animal death,"[1]; Group C: 8 mg/kg ADM days 3 and 5 plus 15 minute cycles of positive then negative 15 kV DC field 4 hours after each injection, day 12",XXXXX
same,necropsy of the dead animals,[1]; Groups B and C: 8 mg/kg ADM days 3 and 5 plus electrostatic field,obvious heart enlargement
same,tumor wt. loss,"[2]; GA: 12 mg/kg ADM on day 4, no electrostatic field exposure (screen not charged)",−24%
same,tumor wt. loss,"[2]; GB: 12 mg/kg ADM on day 4 plus screen changed positive to negative 15 kV DC each 15 minutes, grounded wire grid below cage",−86%
same,tumor wt. loss,"[2]; GC: 12 mg/kg ADM on day 4 plus screen 15 kV DC changed positive to negative each 15 minutes, animals on grounded wire grid cage floor",−80%
same,tumor wt. loss,"[2]; GD: 12 mg/kg ADM on day 4 plus screen changed positive to negative 15 kV each 15 minutes, no ground plane nearby",−75%
